Legend:
rat liver receptor = rat liver receptor (Rattus norvegicus, UniProt P30082); conditions: literature, Bioorganic and Medicinal Chemistry Letters 2(9):915-918; cited from earlier work
rat liver receptor, sequence (P30082 27-485): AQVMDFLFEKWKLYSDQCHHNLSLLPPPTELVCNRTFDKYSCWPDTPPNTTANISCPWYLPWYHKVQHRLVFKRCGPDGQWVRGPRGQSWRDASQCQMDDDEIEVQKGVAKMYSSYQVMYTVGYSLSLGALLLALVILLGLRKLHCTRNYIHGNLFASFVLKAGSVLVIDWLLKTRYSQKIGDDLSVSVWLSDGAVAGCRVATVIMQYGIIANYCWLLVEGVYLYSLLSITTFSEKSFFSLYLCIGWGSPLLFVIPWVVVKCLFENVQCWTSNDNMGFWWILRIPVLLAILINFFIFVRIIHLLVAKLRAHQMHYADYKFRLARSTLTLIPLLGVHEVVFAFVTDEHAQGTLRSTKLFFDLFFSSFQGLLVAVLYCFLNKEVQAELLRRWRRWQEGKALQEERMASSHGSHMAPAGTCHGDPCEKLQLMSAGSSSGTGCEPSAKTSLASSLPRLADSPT

Structure (SMILES)	melting point	displacement of glucagon from the rat liver receptor (rat liver receptor)
COc1cc(/C=N/NC(=O)c2ccc(O)c(N)c2)cc(OC)c1OCc1ccc(C(C)C)cc1 [Example 793, 3-Amino-4-hydroxybenzoic Acid [4-(4-Isopropylbenzyloxy)-3,5-dimethoxybenzylidene]-hydrazide]	174 to 175 °C	–
COc1cc(OCC(=O)NC2CCN(Cc3ccccc3)C2)ccc1/C=N/NC(=O)c1ccc(O)c(N)c1 [Example 794, (R)-2-{4-[(3-Amino-4-hydroxybenzoyl)hydrazonomethyl]-3-methoxyphenoxy}-N-(1-benzylpyrrolidin-3-yl)acetamide]	157 to 160 °C	–
CCN(CC)CCN(CCOc1ccc(/C=N/NC(=O)c2ccc(O)c(Cl)c2)c2ccccc12)Cc1ccc(OC(F)(F)F)cc1 [Example 143, 3-Chloro-4-hydroxybenzoic Acid {4-[2-[N′-(2-N,N-Diethylaminoethyl)-N′-(4-trifluoromethoxy-benzylamino)]]ethoxy-1-naphthylmethylene}hydrazide]	134 to 136 °C	–
COc1cc(OCCN2CCc3ccccc3C2)ccc1/C=N/NC(=O)c1ccc(O)c(N)c1 [Example 792, 3-Amino-4-hydroxybenzoic Acid {4-[2-(1,2,3,4-Tetrahydro-isoquinolin-2-yl)ethoxy]-2-methoxybenzylidene}hydrazide]	162 to 164 °C	–
CN(C)CCCN(C)c1nc2cc(Cl)c(Cl)cc2nc1C=Cc1ccccc1 [(2-styryl-3-[3-(dimethylamino)propylmethyl-amino]-6,7-dichloroquinoxaline]	–	displace glucagon from the rat liver receptor

The next lines start with results.

melting point	Structure (SMILES)	displacement of glucagon from the rat liver receptor (rat liver receptor)
159 to 162 °C	COc1cc(/C=N/NC(=O)c2ccc(O)c(Cl)c2)ccc1NC(=O)c1ccc2ccccc2n1 [Example 807, Quinoline-2-carboxylic Acid {4-[(3-Chloro-4-hydroxybenzoyl)hydrazonomethyl]-2-methoxyphenyl}amide]	–
187 to 192 °C	Nc1cc(C(=O)N/N=C/c2ccc(OCC(=O)N[C@@H]3CCN(Cc4ccccc4)C3)c3ccccc23)ccc1O [Example 795, (R)-2-{4-[(3-Amino-4-hydroxybenzoyl)hydrazonomethyl]naphthyl-1-yloxy}-N-(1-benzylpyrrolidin-3-yl)acetamide]	–
235 to 236.5 °C	COc1cc(NC(=O)COc2ccc(OC(F)(F)F)cc2)ccc1/C=N/NC(=O)c1ccc(O)c(Cl)c1 [Example 804]	–
192 to 193 °C	Nc1cc(C(=O)N/N=C/c2ccc(OCC(=O)N[C@H]3CCN(Cc4ccccc4)C3)c3ccccc23)ccc1O [Example 797, (S)-2-{4-[(3-Amino-4-hydroxybenzoyl)hydrazonomethyl]naphthyl-1-yloxy}-N-(1-benzylpyrrolidin-3-yl)acetamide]	–
216 to 218 °C	COc1cc(/C=N/NC(=O)c2ccc(O)c(Cl)c2)ccc1NC(=O)COc1ccc(OC(F)(F)F)cc1 [Example 806, N-{4-[(3-Chloro-4-hydroxybenzoyl)hydrazonomethyl]-2-methoxyphenyl}-2-(4-trifluoromethoxyphenoy)acetamide]	–
216 to 218 °C	COc1cc(NC(=O)COc2ccc(Cl)cc2)ccc1/C=N/NC(=O)c1ccc(O)c(Cl)c1 [Example 808, N-(4-[(3-Chloro-4-hydroxybenzoyl)hydrazonomethyl]-3-methoxyphenyl}-2-(4-chlorophenoxy)acetamide]	–
236 to 238 °C	COc1cc(NC(=O)c2ccc3ccccc3n2)ccc1/C=N/NC(=O)c1ccc(O)c(Cl)c1 [Example 805, Quinoline-2-carboxylic Acid (4-[(3-Chloro-4-hydroxybenzoyl)hydrazonomethyl]-3-methoxyphenyl}amide]	–

Source: patent US6613942B1 (Novo Nordisk A/S, priority 1997, dated 2003)
